Assays:
human 5-HT1A receptor [1] = molecular target: T1, human 5-HT1A receptor (Homo sapiens (Human), UniProt P08908); experiment: Test 1: binding activity for human 5-HT1A receptor ([3H]8-OH-DPAT, CHO cell membrane fraction)
Method: (§1) Test 1: Evaluation of Binding Activity for Human 5-HT1A Receptor, Human 5-HT2A Receptor, and Human D2 Receptor
(§2) Binding affinity of the present compound for human 5-HT1A receptor, human 5-HT2A receptor, and human D2 receptor was measured by the following procedures.
(§3) Each mixture was incubated at room temperature for 60 minutes. Then, the mixture was added quickly on a glassfiber filter plate (Multiscreen FB, Millipore, Inc.) coated with 0.3% aqueous polyethylenimine, and vacuum-filtered. Radioactivity remaining on the filter was measured with a liquid scintillation counter (PerkinElmer, Inc.). Binding inhibition rate was calculated from the following formula.
(§4) IC50 value was calculated by Hill analysis (Physiology, 1910, 40, 190-200). Ki of each compound was calculated from the following formula. Binding inhibition constant (Ki)=IC50/(1+S/Kd) wherein S is concentration of ligand; Kd is a binding dissociation constant of ligand to membrane, which is calculated from a saturated binding experiment conducted with the same cell membrane. A small Ki value means strong binding ability to a receptor.

human D2 receptor = human D2 receptor (Homo sapiens (Human), UniProt P14416); experiment: Test 1: binding activity for human D2 receptor ([3H]Spiperone, CHO cell membrane fraction); conditions: human D2 receptor, [3H]Spiperone
Method: as §1, §2, §3
as §4, with “Ki” for “IC50 value was calculated by Hill analysis (Physiology, 1910, 40, 190-200). Ki”

human 5-HT1A receptor [2] = molecular target: T1, human 5-HT1A receptor; experiment: Test 2: agonist activity for human 5-HT1A receptor ([35S]GTPγS binding); assay type: biochemical; conditions: for EC50: [35S]GTPγS binding, concentration at which half the activity of Emax was obtained; for Emax at 10 µM: agonist activity in the presence of 10 μM of compound, relative to 100 μmol/L 5-HT
Method: Test 2: Evaluation of Agonist Activity for Human 5-HT1A Receptor
CHO cell membrane fraction in which human 5-HT1A receptor was expressed as used in Test 1 was purchased. To a buffer containing guanosine diphosphate were added a test compound dissolved in DMSO, each receptor membrane sample diluted with buffer, and [^35S] Guanosine 5′-O-[gamma-thio]triphosphate (GTPγS). The mixture was incubated at room temperature for 60 minutes. Then, the mixture was added quickly on a glassfiber filter plate (Multiscreen FB, Millipore, Inc.), and vacuum-filtered. Radioactivity remaining on the […] was measured with a liquid scintillation counter. Agonist activity was calculated from the following formula.

[3] = Test 4: metabolic stability test in human hepatic microsome; assay type: in vitro ADME; conditions: 0.1 mg/mL microsome, 0.1 μmol/L compound, 37° C., 30 minutes
Method: Test 4: Metabolic Stability Test in Human Hepatic Microsome
The stability of the present compound in human hepatic microsome metabolism was evaluated as mentioned below. Human hepatic microsome was obtained from Xenontech. Human hepatic microsome, NADPH, and each test compound were mixed in 25 mmol/L phosphate buffer solution (pH 7.4) to reach the following concentrations as shown below, and the mixture was incubated at 37° C. for 30 minutes. • Human hepatic microsome: 0.1 mg/mL • NAPDH: 3.2 mmol/L • Test compound: 0.1 μmol/L
The residual ratio of the test compound in each sample after 30 minutes was measured by LC-MS, and the metabolic stability in human hepatic microsome was calculated from the following formula. Metabolic stability in human hepatic microsome (mL/min/mg protein)=−LN (residual ratio)/30/0.1

hERG channel = hERG channel (Homo sapiens (Human), UniProt Q12809); experiment: Test 6-1: inhibitory activity for hERG channel (auto patch clamp, Qpatch); assay type: cell-based; conditions: whole cell auto patch clamp, hERG-CHO cells; read-out: hERG inhibition IC50
Method: Test 6-1: Evaluation of Inhibitory Activity for hERG Channel
Inhibitory activity of the present compound for hERG channel was measured by whole cell patch clamp method with an auto patch clamp system using CHO cells in which hERG channel involved in human rapidly activating delayed rectifier potassium current (IKr) was forcibly expressed.
hERG-CHO cells purchased from ChanTest Cop. were cultured in a CO2 incubator at 37° C., and dissociated from a flask with trypsin shortly before the measurement of hERG current, to prepare a cell suspension.
Extracellular fluid: 2 mmol/L CaCl2, 1 mmol/L MgCl2, 10 mmol/L HEPES, 4 mmol/L KCl, 145 mmol/L NaCl, 10 mmol/L Glucose
Intracellular fluid: 5.4 mmol/L CaCl2, 1.8 mmol/L MgCl2, 10 mmol/L HEPES, 31 mmol/L KOH, 10 mmol/L EGTA, 120 mmol/L KCl, 4 mmol/L Na2-ATP
Test compound solution: Test compound was dissolved in DMSO to reach the concentration of 2 mmol/L or 20 mmol/L, in order to prepare a test compound solution. […] (Measurement of Current Value and Data Analysis)
The cell suspension, the extracellular fluid, the intracellular fluid, and the measurement plate were set in the auto patch clamp system, and hERG current was measured by whole cell patch clamp method. […] Each pulse interval was 15 seconds. The data analysis was carried out with Qpatch Assay Software (Biolin Scientific). The test was carried out by applying incrementally 4 concentrations of each test compound, and the average of the maximum peak tail currents which were obtained from the last 3 stimulations in each concentration was determined as the evaluated data. Based on the current inhibition rate for a pre-applied current at each concentration of each test compound, IC50 value was calculated by Hill equation with the software.

T1 sequence (P08908 whole entry): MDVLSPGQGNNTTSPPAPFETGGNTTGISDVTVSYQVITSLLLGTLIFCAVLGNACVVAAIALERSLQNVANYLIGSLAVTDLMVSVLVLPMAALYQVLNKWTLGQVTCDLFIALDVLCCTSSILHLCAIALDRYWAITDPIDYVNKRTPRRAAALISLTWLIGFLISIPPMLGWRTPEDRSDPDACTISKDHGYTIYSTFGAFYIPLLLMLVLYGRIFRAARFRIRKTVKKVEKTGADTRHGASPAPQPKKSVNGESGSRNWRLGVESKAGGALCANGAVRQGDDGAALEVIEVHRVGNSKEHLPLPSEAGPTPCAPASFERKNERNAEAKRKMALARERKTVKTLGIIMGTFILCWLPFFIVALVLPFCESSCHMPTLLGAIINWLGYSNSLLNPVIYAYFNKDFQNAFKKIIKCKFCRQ
Sequence of hERG channel (Q12809 whole entry): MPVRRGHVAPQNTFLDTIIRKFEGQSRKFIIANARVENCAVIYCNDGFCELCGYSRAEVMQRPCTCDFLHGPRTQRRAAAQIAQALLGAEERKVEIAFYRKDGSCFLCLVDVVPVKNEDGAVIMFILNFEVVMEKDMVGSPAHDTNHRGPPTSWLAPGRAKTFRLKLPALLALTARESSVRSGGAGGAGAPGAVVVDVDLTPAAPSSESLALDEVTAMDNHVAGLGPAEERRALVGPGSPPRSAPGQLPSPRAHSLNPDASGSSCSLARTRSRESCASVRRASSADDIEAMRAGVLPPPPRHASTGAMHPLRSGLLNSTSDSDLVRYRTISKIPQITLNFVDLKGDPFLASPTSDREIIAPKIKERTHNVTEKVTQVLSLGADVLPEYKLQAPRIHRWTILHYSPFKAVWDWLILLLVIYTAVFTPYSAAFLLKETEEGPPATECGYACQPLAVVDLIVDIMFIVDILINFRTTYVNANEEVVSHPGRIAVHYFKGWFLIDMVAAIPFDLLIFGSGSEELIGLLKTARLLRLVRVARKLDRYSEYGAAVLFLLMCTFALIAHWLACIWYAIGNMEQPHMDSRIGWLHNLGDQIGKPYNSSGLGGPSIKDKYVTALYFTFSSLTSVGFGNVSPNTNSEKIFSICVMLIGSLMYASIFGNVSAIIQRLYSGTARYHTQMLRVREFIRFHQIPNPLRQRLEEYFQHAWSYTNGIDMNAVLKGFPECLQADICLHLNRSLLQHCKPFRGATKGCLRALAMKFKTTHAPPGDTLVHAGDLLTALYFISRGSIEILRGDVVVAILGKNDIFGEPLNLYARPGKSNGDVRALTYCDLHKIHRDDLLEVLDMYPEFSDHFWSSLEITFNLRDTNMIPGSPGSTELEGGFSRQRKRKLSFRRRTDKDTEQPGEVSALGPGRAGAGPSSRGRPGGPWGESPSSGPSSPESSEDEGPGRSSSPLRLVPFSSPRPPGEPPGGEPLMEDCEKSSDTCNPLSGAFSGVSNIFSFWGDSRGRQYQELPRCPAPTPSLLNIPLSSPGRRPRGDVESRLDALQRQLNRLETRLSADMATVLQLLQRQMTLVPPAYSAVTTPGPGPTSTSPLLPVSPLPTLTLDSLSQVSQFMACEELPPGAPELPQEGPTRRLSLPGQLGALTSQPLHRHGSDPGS
Sequence of human D2 receptor (P14416 whole entry): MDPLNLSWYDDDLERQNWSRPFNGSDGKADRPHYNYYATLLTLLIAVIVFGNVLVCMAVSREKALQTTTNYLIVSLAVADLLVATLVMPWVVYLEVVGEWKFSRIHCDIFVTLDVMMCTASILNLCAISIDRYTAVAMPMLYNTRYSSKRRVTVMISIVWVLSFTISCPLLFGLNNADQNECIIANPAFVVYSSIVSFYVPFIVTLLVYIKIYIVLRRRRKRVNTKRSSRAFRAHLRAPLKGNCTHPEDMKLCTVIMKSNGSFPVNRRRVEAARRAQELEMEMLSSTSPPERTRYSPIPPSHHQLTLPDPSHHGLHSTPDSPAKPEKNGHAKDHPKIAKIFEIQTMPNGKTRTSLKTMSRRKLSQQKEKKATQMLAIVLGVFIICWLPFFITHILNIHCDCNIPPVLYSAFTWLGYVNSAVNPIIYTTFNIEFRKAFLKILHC

SMILES	Ki (human 5-HT1A receptor [1]) [nM]	Ki (human D2 receptor) [nM]	EC50 (human 5-HT1A receptor [2]) [nM]	Emax at 10 µM (human 5-HT1A receptor [2]) [%]	Metabolic stability in human hepatic microsome [3] [mL/min/mg protein]	IC50 (hERG channel) [nM]
CC1(C)CN(CCN2CCC(c3noc4cc(F)ccc34)CC2)C(=O)c2ncccc21 [Example 119]	3.9	105	63.9	35	–	–
Cn1nc(Br)c2c1CCN(CCN1CCC(c3noc4ccccc34)CC1)C2=O [Example 70]	14.1	867	79.3	50	–	–
Cc1ccc2c(n1)C(=O)N(CCN1CCC(c3noc4ccccc34)CC1)CC2 [Example 187]	–	–	–	–	<0.05	–
Cc1ccc2c(C3CCN(CCN4CCc5cccnc5C4=O)CC3)noc2c1 [Example 118]	73.1	276	550	5	–	–
Cn1cc2c(n1)C(=O)N(CCN1CCC(c3noc4ccccc34)CC1)CCC2 [Example 48]	–	574	–	37	<0.01	1200
O=C1c2oc(C3CC3)nc2CCN1CCN1CCC(c2noc3ccccc23)CC1 [Example 68]	–	853	–	38	0.056	< 270
Cc1ccc2c(n1)C(=O)N(CCN1CCC(c3noc4ccccc34)CC1)CC2 [Example 186]	–	–	–	–	0.095	–
Cc1ncc2c(=O)n(CCN3CCC(c4noc5ccccc45)CC3)ccc2n1 [Example 194, 6-{2-[4-(1,2-Benzoisoxazol-3-yl)piperidin-1-yl]ethyl}-2-methylpyrido[4,3-d]pyrimidin-5(6H)-one]	–	–	–	–	<0.05	4900
CC(C)n1ncc2c1CCN(CCN1CCC(c3noc4ccccc34)CC1)C2=O [Example 159]	255	373	854	18	<0.05	–
Cn1cc2c(n1)CCN(CCN1CCC(c3noc4ccccc34)CC1)C2=O [Example 17]	–	689	–	52	<0.01	1000
Cn1nc2c(c1Br)C(=O)N(CCN1CCC(c3noc4ccccc34)CC1)CC2 [Example 74]	3.48	210	4.42	51	–	–
CC(CN1CCC(c2noc3cc(F)ccc23)CC1)N1CCc2cccnc2C1=O (stereo not shown) [Example 122]	24	537	121	23	<0.05	–
Cn1nc2c(c1Br)C(=O)N(CCN1CCN(c3nsc4ccccc34)CC1)CC2 [Example 73]	0.97	234	–	–	–	–
O=C1c2cccnc2CCN1CCN1CCC(c2noc3ccccc23)CC1 [Example 128]	83.2	625	35.9	33	<0.05	–

Further lines, with some results ahead:

Ki (human 5-HT1A receptor [1]) [nM]	Ki (human D2 receptor) [nM]	EC50 (human 5-HT1A receptor [2]) [nM]	Emax at 10 µM (human 5-HT1A receptor [2]) [%]	Metabolic stability in human hepatic microsome [3] [mL/min/mg protein]	SMILES	IC50 (hERG channel) [nM]
44.2	1920	62.9	44	–	O=C1c2cn[nH]c2CCN1CCN1CCN(c2nsc3ccccc23)CC1 [Example 169]	–
7.91	2580	77.9	62	0.143	Cc1ncc2c(=O)n(CCN3CCN(c4nsc5ccccc45)CC3)ccc2n1 [Example 95]	–
26.5	402	1040	31	–	O=C1c2ncccc2CCC1CCN1CCN(c2noc3cc(F)ccc23)CC1 (stereo not shown) [Example 143]	800
2.64	305	7.34	67	–	CCc1nc2c(o1)C(=O)N(CCN1CCN(c3nsc4ccccc34)CC1)CC2 [Example 71]	–
–	601	–	60	<0.01	Cn1ccc2c1CCCN(CCN1CCN(c3noc4ccccc34)CC1)C2=O [Example 109, 5-{2-[4-(1,2-Benzoisoxazol-3-yl)piperazin-1-yl]ethyl}-1-methyl-5,6,7,8-tetrahydropyrrolo[3,2-c]azepin-4 (H)-one]	11300
20.2	170	844	43	0.13	O=C1c2cnn(C3CC3)c2CCN1CCN1CCN(c2nsc3ccccc23)CC1 [Example 160]	–
–	> 10000	–	53	<0.05	O=C1c2nc(Cl)ccc2CCN1CCN1CCN(c2noc3ccccc23)CC1 [Example 144]	–
10.9	1400	7.85	40	0.726	O=c1c2cnc(C3CC3)nc2ccn1CCN1CCN(c2nsc3ccccc23)CC1 [Example 182]	–
–	954	–	59	–	O=c1c2cnc(C(F)(F)F)cc2ccn1CCN1CCC(c2noc3ccccc23)CC1 [Example 84]	–
–	–	–	50	0.064	O=c1c2ncccc2ccn1CCN1CCN(c2nsc3ccccc23)CC1 [Example 8]	2000
48.6	3690	79	53	0.791	CC(C)c1ncc2c(=O)n(CCN3CCN(c4nsc5ccccc45)CC3)ccc2n1 [Example 181]	–
3.33	384	8.2	72	–	O=c1c2cnc(C(F)(F)F)cc2ccn1CCN1CCN(c2nsc3ccccc23)CC1 [Example 172]	–
–	–	–	16	<0.05	O=C1c2cccnc2CCN1CCN1CCN(c2noc3ccccc23)CC1 [Example 153, 6-{2-[4-(1,2-Benzoisoxazol-3-yl)piperazin-1-yl]ethyl}-7,8-dihydro-1,6-naphthyridin-5(6H)-one]	7100
9.9	1210	16	51	–	Cc1cc2c(cn1)C(=O)N(CCN1CCN(c3noc4ccccc34)CC1)CC2(C)C [Example 86]	–
6.35	6940	86.5	58	–	O=C1c2[nH]cnc2CCCN1CCN1CCN(c2nsc3ccccc23)CC1 [Example 100, 5-{2-[4-(1,2-Benzoisothiazol-3-yl)piperazin-1-yl]ethyl}-5,6,7,8-tetrahydroimidazo[4,5-c]azepin-4(3H)-one]	–
